Holding throughout (type): binding
For one experiment, the target named is T1, TYK2 (Homo sapiens, UniProt P29597).
T1 construct: endogenous in cells; host or cells: Molt4 (ATCC CRL-1582) and Ramos (ATCC CRL-1596) cells; mixed lysate 1:2
The experiment is described as follows: Kinobeads assay with immunodetection, TYK2. Particulars: for IC50: Kinobeads assay, mixed Molt4/Ramos lysate, read-out: Inhibition values (IC50) Tyk2. In short, it runs like this:
(§1)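 Steps: compound serially diluted 1:3 in DMSO; added with kinobeads to mixed Molt4/Ramos lysate; 3 h cold incubation; wash; SDS elution; antibody dot blot quantitation of each kinase; IC50 fitting.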

A further experiment deals with T2, JAK1 (Homo sapiens, UniProt P23458).
T2 construct: endogenous in cells; host or cells: Molt4 (ATCC CRL-1582) and Ramos (ATCC CRL-1596) cells; mixed lysate 1:2
The experiment can be described thus: Kinobeads assay with immunodetection, JAK1. Particulars: for IC50: Kinobeads assay, mixed Molt4/Ramos lysate, read-out: Inhibition values (IC50) JAK1. Put shortly: as §1

The target in the next experiment is T3, JAK3 (Homo sapiens, UniProt P52333).
T3 construct: endogenous in cells; host or cells: Molt4 (ATCC CRL-1582) and Ramos (ATCC CRL-1596) cells; mixed lysate 1:2
T3 sequence (P52333 1-1124): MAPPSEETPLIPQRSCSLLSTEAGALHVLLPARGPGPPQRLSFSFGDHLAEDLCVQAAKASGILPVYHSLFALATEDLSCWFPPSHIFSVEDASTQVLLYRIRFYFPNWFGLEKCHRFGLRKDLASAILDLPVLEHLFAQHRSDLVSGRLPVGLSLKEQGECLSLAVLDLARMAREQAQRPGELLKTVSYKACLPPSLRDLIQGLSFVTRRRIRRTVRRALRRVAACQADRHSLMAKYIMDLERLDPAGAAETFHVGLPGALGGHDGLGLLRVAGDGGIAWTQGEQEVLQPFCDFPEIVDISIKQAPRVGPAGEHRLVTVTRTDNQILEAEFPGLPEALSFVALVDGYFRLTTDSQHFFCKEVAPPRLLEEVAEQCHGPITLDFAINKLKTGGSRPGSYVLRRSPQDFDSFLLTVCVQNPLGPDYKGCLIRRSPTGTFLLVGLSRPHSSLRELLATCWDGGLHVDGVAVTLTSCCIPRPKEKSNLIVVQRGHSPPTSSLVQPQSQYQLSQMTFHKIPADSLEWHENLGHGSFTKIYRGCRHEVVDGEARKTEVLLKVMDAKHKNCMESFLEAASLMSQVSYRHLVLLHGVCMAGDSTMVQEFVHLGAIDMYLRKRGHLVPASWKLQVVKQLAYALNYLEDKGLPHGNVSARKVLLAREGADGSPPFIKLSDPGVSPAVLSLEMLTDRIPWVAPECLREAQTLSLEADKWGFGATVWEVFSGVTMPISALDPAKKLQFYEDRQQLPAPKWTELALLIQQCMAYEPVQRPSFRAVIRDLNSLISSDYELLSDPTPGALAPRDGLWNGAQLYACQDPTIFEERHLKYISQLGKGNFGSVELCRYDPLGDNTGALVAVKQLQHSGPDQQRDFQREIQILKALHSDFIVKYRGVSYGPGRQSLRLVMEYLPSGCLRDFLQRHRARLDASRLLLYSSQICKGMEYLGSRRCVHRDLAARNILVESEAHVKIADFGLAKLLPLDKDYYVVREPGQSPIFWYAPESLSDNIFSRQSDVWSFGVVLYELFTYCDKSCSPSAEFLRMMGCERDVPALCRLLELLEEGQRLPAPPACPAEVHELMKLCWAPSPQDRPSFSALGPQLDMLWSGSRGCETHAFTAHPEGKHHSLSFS
The experiment is described as follows: Kinobeads assay with immunodetection, JAK3. Conditions: for IC50: Kinobeads assay, mixed Molt4/Ramos lysate, read-out: Inhibition values (IC50) JAK3. In short, it runs like this: as §1

Another experiment concerns the target T4, JAK2 (Homo sapiens, UniProt O60674).
T4 construct: endogenous in cells; host or cells: Molt4 (ATCC CRL-1582) and Ramos (ATCC CRL-1596) cells; mixed lysate 1:2
The experiment is described as follows: Kinobeads assay with immunodetection, JAK2. Particulars: mixed Molt4/Ramos lysate, read-out: Inhibition values (IC50) JAK2. In short, it runs like this: as §1

Counter-ions that a name gives are not always drawn. Where only a bound is given, the exact number is not on record here.

T4 sequence (O60674 whole entry): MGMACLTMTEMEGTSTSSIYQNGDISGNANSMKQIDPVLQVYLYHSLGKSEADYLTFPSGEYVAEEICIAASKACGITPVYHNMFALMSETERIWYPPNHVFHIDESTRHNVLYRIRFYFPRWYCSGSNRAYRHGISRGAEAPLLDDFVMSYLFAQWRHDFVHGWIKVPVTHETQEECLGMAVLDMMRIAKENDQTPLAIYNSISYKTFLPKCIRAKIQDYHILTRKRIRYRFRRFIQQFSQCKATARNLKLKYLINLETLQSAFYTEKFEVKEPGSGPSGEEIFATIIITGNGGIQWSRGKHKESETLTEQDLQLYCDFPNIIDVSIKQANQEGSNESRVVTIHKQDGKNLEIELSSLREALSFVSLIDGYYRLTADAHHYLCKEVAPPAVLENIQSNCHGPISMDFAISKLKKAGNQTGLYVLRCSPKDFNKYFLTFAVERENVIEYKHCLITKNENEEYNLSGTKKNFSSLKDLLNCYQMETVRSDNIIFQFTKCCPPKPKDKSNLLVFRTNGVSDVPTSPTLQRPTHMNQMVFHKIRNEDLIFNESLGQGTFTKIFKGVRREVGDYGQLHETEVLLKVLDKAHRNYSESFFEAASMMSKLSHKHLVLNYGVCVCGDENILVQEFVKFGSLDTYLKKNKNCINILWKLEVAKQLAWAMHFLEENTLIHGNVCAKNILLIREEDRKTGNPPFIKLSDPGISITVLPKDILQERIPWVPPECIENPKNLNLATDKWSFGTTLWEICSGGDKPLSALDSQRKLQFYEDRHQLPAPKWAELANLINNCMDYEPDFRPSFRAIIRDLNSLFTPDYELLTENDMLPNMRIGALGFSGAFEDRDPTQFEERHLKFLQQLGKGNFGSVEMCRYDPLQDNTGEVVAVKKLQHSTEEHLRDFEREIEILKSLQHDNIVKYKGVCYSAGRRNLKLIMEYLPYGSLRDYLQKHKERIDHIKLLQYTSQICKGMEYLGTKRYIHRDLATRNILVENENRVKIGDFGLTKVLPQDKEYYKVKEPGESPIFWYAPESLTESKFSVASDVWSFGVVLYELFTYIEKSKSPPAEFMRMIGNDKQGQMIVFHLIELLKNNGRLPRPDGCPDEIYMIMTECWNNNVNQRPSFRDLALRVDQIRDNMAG
T2 sequence (P23458 whole entry): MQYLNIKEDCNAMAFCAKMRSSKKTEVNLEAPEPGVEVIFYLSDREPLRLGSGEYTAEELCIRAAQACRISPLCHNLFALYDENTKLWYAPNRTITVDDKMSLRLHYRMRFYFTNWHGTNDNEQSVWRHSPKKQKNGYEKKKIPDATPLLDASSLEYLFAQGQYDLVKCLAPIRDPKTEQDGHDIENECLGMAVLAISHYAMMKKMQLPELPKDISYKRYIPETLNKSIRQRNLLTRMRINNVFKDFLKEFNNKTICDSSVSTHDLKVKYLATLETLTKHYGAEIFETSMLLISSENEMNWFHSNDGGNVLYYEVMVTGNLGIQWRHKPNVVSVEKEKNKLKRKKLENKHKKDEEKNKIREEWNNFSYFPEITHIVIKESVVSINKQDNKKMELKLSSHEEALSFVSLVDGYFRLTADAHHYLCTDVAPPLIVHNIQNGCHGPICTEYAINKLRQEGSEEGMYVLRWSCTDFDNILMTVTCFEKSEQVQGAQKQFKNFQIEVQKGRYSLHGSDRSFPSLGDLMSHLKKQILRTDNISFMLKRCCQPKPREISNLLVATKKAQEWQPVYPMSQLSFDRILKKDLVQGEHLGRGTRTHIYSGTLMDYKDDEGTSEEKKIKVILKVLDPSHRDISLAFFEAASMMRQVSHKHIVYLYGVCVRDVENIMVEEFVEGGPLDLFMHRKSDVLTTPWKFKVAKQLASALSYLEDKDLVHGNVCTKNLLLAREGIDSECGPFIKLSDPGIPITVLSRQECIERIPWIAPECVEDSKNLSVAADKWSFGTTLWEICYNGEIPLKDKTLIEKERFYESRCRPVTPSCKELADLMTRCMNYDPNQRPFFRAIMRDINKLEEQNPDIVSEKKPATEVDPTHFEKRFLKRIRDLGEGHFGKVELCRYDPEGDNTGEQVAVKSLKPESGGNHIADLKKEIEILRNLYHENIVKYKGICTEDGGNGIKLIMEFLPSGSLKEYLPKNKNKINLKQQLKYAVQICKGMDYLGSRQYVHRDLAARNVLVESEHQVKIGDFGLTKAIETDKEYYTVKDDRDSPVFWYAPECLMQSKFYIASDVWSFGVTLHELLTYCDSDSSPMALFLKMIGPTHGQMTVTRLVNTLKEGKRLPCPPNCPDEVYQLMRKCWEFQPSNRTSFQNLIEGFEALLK
T1 sequence (P29597 whole entry): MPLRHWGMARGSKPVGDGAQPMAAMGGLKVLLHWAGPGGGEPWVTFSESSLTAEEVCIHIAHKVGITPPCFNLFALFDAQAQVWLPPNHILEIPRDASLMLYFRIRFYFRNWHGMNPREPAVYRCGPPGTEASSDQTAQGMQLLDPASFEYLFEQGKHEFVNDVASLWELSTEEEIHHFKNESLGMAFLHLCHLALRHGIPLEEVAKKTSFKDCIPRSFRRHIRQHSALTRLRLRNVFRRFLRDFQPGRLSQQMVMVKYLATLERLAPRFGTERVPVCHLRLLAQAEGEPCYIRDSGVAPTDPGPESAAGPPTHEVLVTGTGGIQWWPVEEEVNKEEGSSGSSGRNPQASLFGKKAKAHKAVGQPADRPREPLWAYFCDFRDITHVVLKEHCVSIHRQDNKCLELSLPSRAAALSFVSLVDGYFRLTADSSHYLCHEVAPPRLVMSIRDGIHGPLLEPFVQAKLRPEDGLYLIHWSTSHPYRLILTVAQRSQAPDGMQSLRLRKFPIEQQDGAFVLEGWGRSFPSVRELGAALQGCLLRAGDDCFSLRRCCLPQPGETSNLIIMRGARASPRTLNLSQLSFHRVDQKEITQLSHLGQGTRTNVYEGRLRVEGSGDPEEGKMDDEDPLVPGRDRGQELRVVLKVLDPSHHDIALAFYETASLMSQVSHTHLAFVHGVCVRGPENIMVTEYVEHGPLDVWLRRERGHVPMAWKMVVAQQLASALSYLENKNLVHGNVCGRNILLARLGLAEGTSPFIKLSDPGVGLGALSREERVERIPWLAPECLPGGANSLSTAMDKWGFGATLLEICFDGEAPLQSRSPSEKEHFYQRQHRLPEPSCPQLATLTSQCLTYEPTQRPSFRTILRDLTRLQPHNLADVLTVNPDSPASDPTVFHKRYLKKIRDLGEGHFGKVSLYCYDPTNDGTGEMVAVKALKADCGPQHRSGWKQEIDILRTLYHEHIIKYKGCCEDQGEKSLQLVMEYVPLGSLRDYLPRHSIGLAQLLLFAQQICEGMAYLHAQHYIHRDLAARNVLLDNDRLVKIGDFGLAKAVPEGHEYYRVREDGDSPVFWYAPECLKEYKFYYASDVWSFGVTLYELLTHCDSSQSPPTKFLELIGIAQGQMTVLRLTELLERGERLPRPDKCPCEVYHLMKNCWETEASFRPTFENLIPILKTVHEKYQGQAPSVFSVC

Turning to `CN(C)C(=O)Cn1cc(Nc2ncc(Cl)c(NC[C@@H]3CCCN3S(C)(=O)=O)n2)cn1` [Example 69, (S)-2-(4-(5-chloro-4-((1-(methylsulfonyl)pyrrolidin-2-yl)methylamino)pyrimidin-2-ylamino)-1H-pyrazol-1-yl)-N,N-dimethylacetamide], the IC50 (usually the concentration that inhibits the measured activity by half) at TYK2 is less than 0.1 µM; at JAK1 it was less than 0.1 µM; at JAK3, less than 0.1 µM; on JAK2 it was 0.1 to 1 µM. Moreover, the “Selectivity ratio over JAK2, JAK3” value on JAK3 is “JAK3 = 44”.
Regarding `C=CC(=O)N1CCC[C@H]1CNc1nc(Nc2cnn(CCO)c2)ncc1Cl` [Example 11, (S)-1-(2-(((5-chloro-2-((1-(2-hydroxyethyl)-1H-pyrazol-4-yl)amino)pyrimidin-4-yl)amino)methyl)pyrrolidin-1-yl)prop-2-en-1-one], the IC50 on TYK2 was 0.1 to 1 µM; at JAK1 it was 0.1 to 1 µM; on JAK3 it was 1 to 10 µM; at JAK2 it was greater than 10 µM.
Take `Cc1cnc(Nc2cnn(CC(F)F)c2)nc1NC[C@@H]1C[C@H](F)CN1C(=O)CCC#N` [Example 122, 4-((2S,4S)-2-(((2-((1-(2,2-difluoroethyl)-1H-pyrazol-4-yl)amino)-5-methylpyrimidin-4-yl)amino)methyl)-4-fluoropyrrolidin-1-yl)-4-oxobutanenitrile]: the IC50 is 0.1 to 1 µM on TYK2, less than 0.1 µM on JAK1, 1 to 10 µM on JAK3 and 1 to 10 µM on JAK2. Moreover, at JAK1, the “Selectivity ratio over JAK2, JAK1” value is “JAK1 = 194”.
`CC(=O)N1CCCC[C@H]1CNc1nc(Nc2cnn(CCO)c2)ncc1Cl` [Example 33, (S)-1-(2-(((5-chloro-2-((1-(2-hydroxyethyl)-1H-pyrazol-4-yl)amino)pyrimidin-4-yl)amino)methyl)piperidin-1-yl)ethanone]: the IC50 at TYK2 was 1 to 10 µM; at JAK1, 1 to 10 µM; on JAK3, 0.1 to 1 µM; on JAK2, greater than 10 µM. Also, the “Selectivity ratio over JAK2, JAK1” value at JAK1 is given as “JAK1 = 20”.
Regarding `Cc1cnc(Nc2cnn(C)c2)nc1NC[C@@H]1C[C@H](F)CN1CCC#N` [Example 101, 3-((2S,4S)-4-fluoro-2-(((5-methyl-2-((1-methyl-1H-pyrazol-4-yl)amino)pyrimidin-4-yl)amino)methyl)pyrrolidin-1-yl)propanenitrile], the IC50 is less than 0.1 µM at TYK2, less than 0.1 µM at JAK1, 0.1 to 1 µM at JAK3 and 0.1 to 1 µM at JAK2. The “Selectivity ratio over JAK2, JAK1” value on JAK1 is listed as “JAK1 = 17”.
Regarding `CC(C)S(=O)(=O)CCN1CCC[C@@H]1CNc1nc(Nc2cnn(C)c2)ncc1Cl` [Example 139, (R)-5-chloro-N^4-((1-(2-(isopropylsulfonyl)ethyl)pyrrolidin-2-yl)methyl)-N^2-(1-methyl-1H-pyrazol-4-yl)pyrimidine-2,4-diamine], the IC50 at TYK2 is 0.1 to 1 µM; at JAK1, less than 0.1 µM; on JAK3 it was less than 0.1 µM; on JAK2, 1 to 10 µM. The “Selectivity ratio over JAK2, JAK3” value at JAK3 was “JAK3 = 83”.
As to `CS(=O)(=O)N1CCCC[C@H]1CNc1nc(Nc2cnn(CCO)c2)ncc1Cl` [Example 37, (S)-2-(4-((5-chloro-4-(((1-(methylsulfonyl)piperidin-2-yl)methyl)amino)pyrimidin-2-yl)amino)-1H-pyrazol-1-yl)ethanol], the IC50 was 0.1 to 1 µM on TYK2, less than 0.1 µM on JAK1, less than 0.1 µM on JAK3 and 1 to 10 µM at JAK2. Moreover, at JAK3, the “Selectivity ratio over JAK2, JAK3” value is “JAK3 = 64”.
On to `C=CS(=O)(=O)N1CCCC[C@@H]1CNc1nc(Nc2cnn(C)c2)ncc1Cl` [Example 45, (R)-5-chloro-N^2-(1-methyl-1H-pyrazol-4-yl)-N^4-((1-(vinylsulfonyl)piperidin-2-yl)methyl)pyrimidine-2,4-diamine], for which the IC50 was 0.1 to 1 µM at TYK2, 0.1 to 1 µM at JAK1, less than 0.1 µM on JAK3 and 1 to 10 µM on JAK2. The “Selectivity ratio over JAK2, JAK3” value on JAK3 was “JAK3 = 160”.
Regarding `OCCn1cc(Nc2ncc(Cl)c(NCC3CCNC3)n2)cn1` (stereo in doubt) [Example 79, (R)-2-(4-((5-chloro-4-((pyrrolidin-3-ylmethyl)amino)pyrimidin-2-yl)amino)-1H-pyrazol-1-yl)ethanol], the IC50 on TYK2 is 0.1 to 1 µM; at JAK1, 0.1 to 1 µM; at JAK3, 1 to 10 µM; on JAK2, less than 0.1 µM. Further, the “Selectivity ratio over JAK2, JAK1” value at JAK1 is recorded as “JAK1 = 39”.
`Cc1cnc(Nc2cnn(C)c2)nc1NC[C@H]1CCCN1` [Example 72, (R)-5-methyl-N^2-(1-methyl-1H-pyrazol-4-yl)-N^4-(pyrrolidin-2-ylmethyl)pyrimidine-2,4-diamine Hydrochloride]: the IC50 at TYK2 is greater than 10 µM; at JAK1 it was 1 to 10 µM; on JAK3, greater than 10 µM; on JAK2 it was greater than 10 µM.
Regarding `Cn1cc(Nc2ncc(Cl)c(NC[C@H]3CCCN3C(=O)CC#N)n2)cn1` [Example 52, (R)-3-(2-((5-chloro-2-(1-methyl-1H-pyrazol-4-ylamino)pyrimidin-4-ylamino)methyl)pyrrolidin-1-yl)-3-oxopropanenitrile], the IC50 on TYK2 was less than 0.1 µM; on JAK1, less than 0.1 µM; at JAK3 it was less than 0.1 µM; on JAK2, 0.1 to 1 µM. Moreover, the “Selectivity ratio over JAK2, Tyk2” value at TYK2 is recorded as “Tyk2 = 30”.
Regarding `CNC(=O)Cn1cc(Nc2ncc(Cl)c(NC[C@@H]3CCCN3)n2)cn1` [Example 65, (S)-2-(4-(5-chloro-4-(pyrrolidin-2-ylmethylamino)pyrimidin-2-ylamino)-1H-pyrazol-1-yl)-N-methylacetamide], the IC50 on TYK2 is 1 to 10 µM; at JAK1 it was 1 to 10 µM; on JAK3 it was 1 to 10 µM; on JAK2, greater than 10 µM.
On to `CC(C)NC(=O)Cn1cc(Nc2nccc(NC[C@H]3CCCN3C(=O)CCC#N)n2)cn1` [Example 94, (R)-2-(4-((4-(((1-(3-cyanopropanoyl)pyrrolidin-2-yl)methyl)amino)pyrimidin-2-yl)amino)-1H-pyrazol-1-yl)-N-isopropylacetamide], for which the IC50 on TYK2 was less than 0.1 µM; on JAK1, 0.1 to 1 µM; on JAK3 it was 1 to 10 µM; at JAK2, 1 to 10 µM. In addition, on TYK2, the “Selectivity ratio over JAK2, Tyk2” value was “Tyk2 = 609”.
On to `CNC(=O)Cn1cc(Nc2ncc(Cl)c(NC[C@H]3CCCN3)n2)cn1` [Example 63, (R)-2-(4-(5-chloro-4-(pyrrolidin-2-ylmethylamino)pyrimidin-2-ylamino)-1H-pyrazol-1-yl)-N-methylacetamide], for which the IC50 at TYK2 was 1 to 10 µM; on JAK1, 1 to 10 µM; on JAK3 it was 1 to 10 µM; on JAK2 it was greater than 10 µM.
For `Cn1cc(Nc2nccc(NC[C@H]3CCCN3C(=O)CC#N)n2)cn1` [Example 95, (R)-3-(2-(((2-((1-methyl-1H-pyrazol-4-yl)amino)pyrimidin-4-yl)amino)methyl)pyrrolidin-1-yl)-3-oxopropanenitrile], the IC50 on TYK2 was less than 0.1 µM; at JAK1, 0.1 to 1 µM; on JAK3, 1 to 10 µM; on JAK2, 1 to 10 µM. On TYK2, the “Selectivity ratio over JAK2, Tyk2” value is on record as “Tyk2 = 138”.
